Assay results published in article PMC9295577, “Parasite Viability as a Measure of In Vivo Drug Activity in Preclinical and Early Clinical Antimalarial Drug Assessment” (Antimicrobial Agents and Chemotherapy, 2022).
In brackets after ≈: the same amount, converted by molar mass. Several values for one entry are separate records, joined by “and”; a condition that tells them apart may be missing. Equal values may be shown once. Read-outs that look alike come from different tables or passages of the source.

Experiments:
[1] = DHA pharmacokinetics in NSG mice after oral artesunate, one-compartment model; type: in vivo; conditions: mouse, whole blood
Protocol: A volume of 25 μL of whole-blood samples was collected via the tail vein from individual mice at 0.75, 1.5, 3, 8, 26, 50, and 74 h from the 50-mg/kg 4-daily-dose group and at 0.75, 1.5, 3, and 8 h from the 200-mg/kg single-dose group. […] Samples were vortexed for 20 s before being stored at −80°C.
Briefly, the model is defined as follows: (2) C(t)=D×ka/Vd/F(ka−CL/Vd) ×[exp⁡(−CL/Vd×(t−tlag))− exp⁡(−ka×(t−tlag)) ], where Vd/F (L) is the apparent volume of distribution, tlag (h) is the lag time between administration and absorption, CL/F (L/h) is the apparent drug clearance, ka is the rate of drug absorption, and D is the dose given to each subject. The model was fit with and without a lag for the absorption.
We used a least-square approach when fitting the ex vivo regrowth assay to estimate the concentration of viable parasites. […] When fitting the pharmacodynamic model, we first fit the pretreatment parasite concentration data for each human subject with the parasite growth model (equation 3) and estimated the distribution of parasite stages at the time of treatment and the parasite multiplication factor (PMF) when drug is not present. […]

[2] = set-up: method as in earlier work; conditions: humans, non-compartmental analysis, population mean (CV), ref 4 (supplement; Watts et al. 2020), cited from earlier work
[3] = DHA pharmacokinetics in human volunteer infection study after artesunate; type: in vivo, humans
From the text: (§1) The human data used in this study were obtained from a randomized clinical trial (ACTRN12617001394336) ([24]) and the associated exploratory viability study ([19]). Briefly, 5 volunteers were infected by intravenous injection of blood-stage 3D7 P. falciparum parasites.
Briefly, the model is defined as follows: (2) C(t)=D×ka/Vd/F(ka−CL/Vd) ×[exp(−CL/Vd×(t−tlag))− exp(−ka×(t−tlag)) ], where Vd/F (L) is the apparent volume of distribution, tlag (h) is the lag time between administration and absorption, CL/F (L/h) is the apparent drug clearance, ka is the rate of drug absorption, and D is the dose given to each subject. The model was fit with and without a lag for the absorption. The absorption was too fast to be observed in mice, and the one-compartment open model without a lag term fit the murine data best.
A one-compartment model with a first-order absorption and a lag, fit the human data best.
We used a least-square approach when fitting the ex vivo regrowth assay to estimate the concentration of viable parasites. […] When fitting the pharmacodynamic model, we first fit the pretreatment parasite concentration data for each human subject with the parasite growth model (equation 3) and estimated the distribution of parasite stages at the time of treatment and the parasite multiplication factor (PMF) when drug is not present. For the mice, pretreatment parasitemia curves were not detailed enough to allow fitting to estimate parasite life stage distributions and PM: instead, we estimated the PMF for each mouse from the in vivo recrudescence curves after treatment (fitting a tobit regression model using R package censReg) (Fig. 3), and we estimated the life stage distribution using the life stages from flow cytometric analysis (outlined in section C in the supplemental material). […] We fit this model to all data on parasite viability and total circulating parasitemia from mice and humans simultaneously with a variety of parameters constrained to be equivalent between mice and humans, in order to test which parameters, if any, were required to be different between the two hosts in order to best explain the data. We compared these models using the likelihood ratio test (for nested models) and the Akaike information criterion (AIC). A model with fewer parameters was deemed a better fit of the data unless the likelihood ratio test yielded a P value of […] (for nested models) or the difference in AIC of >10 for nonnested models.

[4] = system: P. falciparum 3D7; experiment: PK/PD model of parasite killing and clearance, parameters for mice; type: in vivo
From the text: (§2) To model the drug action in both mice and humans, we used a pharmacodynamic (PD) model in which viable parasites are growing at rate g (per hour) and killed at rate κ (per hour). The dead parasites are then removed at a separate rate, δ (per hour). […] The latter observation is consistent with observations of slower parasite clearance after drug treatment in the NSG mouse model compared with human infection ([27]).
(§3) To model the cyclical growth of P. falciparum parasites, we used a previously published age-structured model of parasite growth, which tracks the distribution of parasite stages developing in time ([40]): (3) vT(a,T)+va(a,T)=0 where, v is the density of parasites at time T postinfection and age a. In this equation, subscripts indicate the partial derivative of v with respect to the subscript variable. […] The constant PMF is the parasite multiplication factor. Since parasites older than approximately 24 h of age are sequestered and no longer in circulation, the total number of circulating viable parasites (V) at any time is given by V(T)= ∫0asv(a,T)da where as is the age that parasites sequester. Importantly, as has been reported previously, the Plasmodium falciparum 3D7 strain used in these studies has an approximately 40-h blood-stage cycle ([41], [42]), so the maximum age of parasites is taken to be A=40 h.
(§4) We extended an existing age-structured model of parasite growth ([43]) to include drug killing of parasites. […] The model has two parasite compartments: one for viable parasites and one for nonviable parasites. The model of drug killing of viable parasites and host removal of nonviable parasites after treatment is defined as follows: vt(a,t)+va(a,t)= −κ(a,C(t))×v(a,t) (4) ut (a,t)=κ(a,C(t))×v(a,t)−δ×u(a,t) for a>0 where v(a,t) and u(a,t) are the density of viable and nonviable parasites of age a at time t posttreatment, respectively. […] The parameter δ is the rate of host removal of nonviable parasites. The total concentrations of circulating V(t) viable and nonviable U(t) parasites at time t are defined as follows: V(t)= ∫0aSv(a,t)da U(t)= ∫0aSu(a,t)da where as is the parasite sequestration age. We assume that the parasites are not sequestering in mice, in which case, as=A (the length of the parasite blood-stage life cycle), and that parasites sequester at as=A/2 in humans ([46]).
(§5) The maximum killing rate m(a) is a function of the parasite age since very-late-stage parasites are not killed by treatment ([47]).
(§6) As in previous studies, the age above which late-stage parasites survive treatment (aschiz) is taken to be the final 4 h of a 48-h life cycle ([48], [49]). The malaria parasite strain used in this study has a 40-h life cycle ([42], [46]), and we take aschiz as the last 4/48th of the life cycle. […]

[5] = system: P. falciparum 3D7; experiment: PK/PD model of parasite killing, parameters common to humans and mice; type: in vivo, Plasmodium falciparum
From the text: as §2, §3, §4, §5, §6

[6] = mouse, literature, cited from earlier work
[7] = system: P. falciparum 3D7; experiment: PK/PD model of parasite killing and clearance, parameters for humans; type: in vivo; conditions: human data from ref 19
From the text: as §2, §1, §3, §4
The maximum killing rate m(a) is a function of the parasite age since very-late-stage parasites are not killed by treatment ([47]). […]

[8] = system: P. falciparum Pf3D7^0087/N9; experiment: Artesunate efficacy in the murine P. falciparum NSG model: parasitemia and parasite viability (ex vivo regrowth assay); set-up: species or system Plasmodium falciparum; conditions: NSG mice, first 24 h, single oral dose 200 vs 50 mg/kg
Protocol: Compound efficacy was assessed in the murine P. falciparum NSG model, as described by Jimenez-Diaz et al. ([38]). […] These mice had been engrafted with human erythrocytes 14 days earlier (generously provided by the Blood Bank in Zürich, Switzerland). Prior to compound treatment, mice were intravenously infected with 2 × 10^5 P. falciparum Pf3D7^0087/N9-infected erythrocytes (day 0). On day 3 after infection, mice were randomly allocated to treatments that were administered orally. Parasitemia was measured by microscopy. Chimerism was monitored by flow cytometry using anti-murine erythrocyte TER119 monoclonal antibody (Pharmingen, San Diego, CA) and SYTO-16 and then analyzed by flow cytometry in serial blood samples (2 μL) collected every day until the completion of the experiment. Parasite recrudescence was detected by microscopy.
Prior to each treatment and after 8, 24, 48, 72, 96 and 168 h, 40 μL of blood was collected using a heparinized capillary and transferred into 10 mL of 37°C preheated medium. The suspension was centrifuged (5 min at 290 × g) and the supernatant discarded.
For the ex vivo regrowth assay (ERA), 10-μL pellets of the washed mouse blood sample were processed as described above for the IRA.
To estimate parasite viability, we fitted the data from the regrowth assay with a mathematical model of parasite growth as described in reference [19]. […]

[9] = humans, one compartment model, population estimate (95% CI)
[10] = model with EC50 and γ common to humans and mice
[11] = model with Emax and γ common to humans and mice
[12] = assumes average mouse weight of 25 g

C[C@H]1[C@@H](O)O[C@@H]2O[C@@]3(C)CC[C@H]4[C@H](C)CC[C@@H]1[C@@]24OO3 [DHA, dihydroartemisinin]
half-life ([1]; mice, computed from CL and Vd, read-out: t1/2, half-clearance time (converted)): 24 min | Vd/F ([1]; read-out: Vd/F, apparent volume of distribution): 0.55 L | V/F, apparent volume of distribution ([2]; ART-R infection (n = 13)): 221.1 (53.6) L | Dose-Normalised AUC ([2]; ART-R infection): 6.3 (89.9) μg h L^-1 mg^-1 | V/F, apparent volume of distribution ([2]; ART-S infection (n = 9)): 310.3 (119.4) L | Dose-Normalised AUC ([2]; ART-S infection): 7.5 (33.2) μg h L^-1 mg^-1 | half-life ([3]; human, blood, 2 mg/kg, humans, computed from CL and Vd, read-out: t1/2, half-clearance time (converted)): 27 min | Vd/F ([3]; human, blood, 2 mg/kg, read-out: Vd/F, apparent volume of distribution): 166 L | CL/F, apparent clearance ([3]; humans (n = 5), artesunate 2 mg/kg, population estimate (95% CI), one-compartment model fitted to data from reference 24): 254.5 L/h and 254.5 (144.5, 364.5) L/h | Dose-Normalised AUC ([3]; humans, one compartment model, average of volunteers, bootstrap confidence interval): 5.34 (3.83, 6.52) μg h L^-1 mg^-1 | ka, absorption rate [3, 9]: 2.29 h⁻¹ | tlag, lag-time [3, 9]: 0.62 (0.4, 0.83) h | EC50 ([4]; Plasmodium falciparum, 3D7, model with Emax and γ common to humans and mice, read-out: EC50M, drug concentration to reach the half-maximum killing rate in mice): 1.32 ng/mL (≈ 4.64 nM) | EmaxM, maximum killing rate in mice [4, 10]: 0.74 h⁻¹ | EC50 ([5]; Plasmodium falciparum, 3D7, model with EC50 and γ common to humans and mice, different Emax, read-out: EC50, drug concentration to reach the half-maximum killing rate): 0.0074 ng/mL (≈ 0.026 nM) | γ, Hill coefficient [5, 10]: 0.70 | γ, Hill coefficient [5, 11]: 0.41 | Emax, maximum killing rate ([5]; model with Emax and γ common to humans and mice, different EC50s): 1.34 h⁻¹ | CL/F, apparent clearance [6, 12]: 1.53 L/h | Vd/F, apparent volume of distribution [6, 12]: 0.91 L | CL/F, apparent clearance [6]: 1.98 L/h | Vd/F, apparent volume of distribution [6]: 0.85 L | t1/2, half-clearance time [6]: 0.41 ([50]) h | EC50 ([7]; Plasmodium falciparum, 3D7, model with Emax and γ common to humans and mice, read-out: EC50H, drug concentration to reach the half-maximum killing rate in humans): 0.0025 ng/mL (≈ 0.00879 nM) | EmaxH, maximum killing rate in humans [7, 10]: 1.45 h⁻¹

C[C@H]1[C@H](OC(=O)CCC(=O)O)O[C@@H]2O[C@@]3(C)CC[C@H]4[C@H](C)CC[C@@H]1[C@@]24OO3 [artesunate]
δM, dead parasite clearance rate in mice [4, 10]: 0.097 h⁻¹ | δM, dead parasite clearance rate in mice [4, 11]: 0.097 h⁻¹ | increase in the decline in total parasitemia on increasing dose from 50 to 200 mg/kg [8]: 2.2 fold | increase in the decline in viability on increasing dose from 50 to 200 mg/kg ([8]; regrowth assay): 23.9 fold | δH, dead parasite clearance rate in humans [7, 10]: 0.18 h⁻¹ | δH, dead parasite clearance rate in humans [7, 11]: 0.18 h⁻¹
